Measured values as given in US20060069132A1, “Azolecarboxamide herbicides” (priority 2004, published 2006).

What was measured:
[1] = test system: barnyardgrass; assay: Test A pre-/postemergence herbicide test; assay type: in vivo, Echinochloa crus-galli
How it was run: (§1)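 Visual injury scores on a 0–100 scale (100 = complete control) taken about ten days post-treatment in greenhouse against untreated controls; dash means no result. Treatments: preemergence soil spray and postemergence spray to runoff on one- to two-leaf plants 2 to 10 cm tall, surfactant-containing formulation.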

[2] = test system: large crabgrass; assay: Test A pre-/postemergence herbicide test; assay type: in vivo, Digitaria sanguinalis
How it was run: as §1

[3] = test system: redroot pigweed; assay: Test A pre-/postemergence herbicide test; assay type: in vivo, Amaranthus retroflexus
How it was run: as §1

[4] = test system: bermudagrass; assay: Test C pre-/postemergence herbicide test; assay type: in vivo, Cynodon dactylon
How it was run: (§2)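 Visual ratings on a 0–100 scale (100 = complete control) made versus untreated controls after 12 to 14 greenhouse days. Test chemicals, formulated in surfactant-containing non-phytotoxic solvent, applied preemergence to planted seeds or postemergence to 1- to 4-leaf plants (2 to 18 cm).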

[5] = test system: woolly cupgrass; assay: Test C pre-/postemergence herbicide test; assay type: in vivo, Eriochloa villosa; conditions: for Cupgrass, Woolly plant response rating: 500 g ai/ha
How it was run: as §2

[6] = test system: giant foxtail; assay: Test C pre-/postemergence herbicide test; assay type: in vivo, Setaria faberi; conditions: for Foxtail, Giant plant response rating: 500 g ai/ha
How it was run: as §2

[7] = test system: goosegrass; assay: Test C pre-/postemergence herbicide test; assay type: in vivo, Eleusine indica; conditions: for Goosegrass plant response rating: 500 g ai/ha
How it was run: as §2

[8] = test system: common ragweed; assay: Test C pre-/postemergence herbicide test; assay type: in vivo, Ambrosia elatior; design: key to Plant response rating, Ragweed: 0 = no effect, 100 = complete control; conditions: for Ragweed plant response rating: 500 g ai/ha
How it was run: as §2

[9] = test system: common (oilseed) sunflower; assay: Test C pre-/postemergence herbicide test; assay type: in vivo, Helianthus annuus; conditions: for Plant response rating (0 = no effect, 100 = complete control), Sunflower: 62 g ai/ha; for Plant response rating (0 = no effect, 100 = complete control), Sunflower / Plant response rating, Sunflower: preemergence; for Plant response rating, Sunflower: visual, 12 to 14 days; for Sunflower plant response rating: Preemergence, 500 g ai/ha, scale 0 to 100, 0 no effect, 100 complete control
How it was run: as §2

[10] = test system: smallflower umbrella sedge; assay: Test C flooded paddy test; assay type: in vivo, Cyperus difformis; conditions: for Plant response rating, Sedge, Umbrella: visual rating after 12 to 14 days
[11] = Postemergence, 500 g ai/ha, 0 to 100 scale, 0 no effect, 100 complete control
[12] = Postemergence, 2000 g ai/ha, 0 to 100 scale, 0 no effect, 100 complete control
[13] = Preemergence, 500 g ai/ha, visual rating, 0 to 100 scale (0 no effect, 100 complete control)
[14] = Preemergence, 2000 g ai/ha, visual rating, 0 to 100 scale (0 no effect, 100 complete control)
[15] = 125 g ai/ha, scale 0 (no effect) to 100 (complete control), visual, 12 to 14 days, preemergence
[16] = 250 g ai/ha, scale 0 to 100 (0 no effect, 100 complete control), visual, 12 to 14 days, preemergence
[17] = Preemergence, 500 g ai/ha, scale 0 to 100, 0 no effect, 100 complete control
[18] = postemergence, 125 g ai/ha, scale 0 to 100
[19] = postemergence, 62 g ai/ha, scale 0 to 100
[20] = Postemergence, 250 g ai/ha, scale 0 to 100, 0 no effect, 100 complete control
[21] = Preemergence, scale 0 to 100, 0 no effect, 100 complete control
[22] = 62 g ai/ha, scale 0 to 100 (0 no effect, 100 complete control)
[23] = 500 g ai/ha, scale 0 to 100 (0 no effect, 100 complete control)
[24] = Preemergence, 2000 g ai/ha, 0 to 100 scale, 0 no effect, 100 complete control
[25] = 125 g ai/ha, scale 0-100, preemergence
[26] = Postemergence, 125 g ai/ha, scale 0 to 100, 0 no effect, 100 complete control
[27] = 250 g ai/ha, scale 0 to 100 (0 no effect, 100 complete control)

CCNC(=O)c1cccc(NC(=O)c2cc(C(C)(C)C)nn2CC)n1 [Compound 144]
Barnyardgrass plant response rating [1, 11]: 85
Plant response rating, Barnyardgrass [1, 12]: 100
Barnyardgrass plant response rating [1, 13]: 100
Barnyardgrass plant response rating [1, 14]: 100
Crabgrass, Large plant response rating [2, 11]: 55
Plant response rating, Crabgrass, Large [2, 12]: 90
Crabgrass, Large plant response rating [2, 13]: 90
Crabgrass, Large plant response rating [2, 14]: 90
Pigweed plant response rating [3, 11]: 100
Plant response rating, Pigweed [3, 12]: 100
Pigweed plant response rating [3, 14]: 100
Pigweed plant response rating ([3]; preemergence, 500 g ai/ha, visual injury, 0 to 100 scale (0 no effect, 100 complete control)): 100
Plant response rating (0 = no effect, 100 = complete control), Bermudagrass ([4]; 62 g ai/ha, preemergence): 70
Plant response rating, Bermudagrass [4, 15]: 80
Plant response rating, Bermudagrass [4, 16]: 80
Bermudagrass plant response rating [4, 17]: 90
Plant response rating, Bermudagrass [4, 18]: 0
Plant response rating, Bermudagrass [4, 19]: 0
Plant response rating (0 = no effect, 100 = complete control), Cupgrass, Woolly ([5]; 62 g ai/ha, preemergence): 0
Plant response rating, Cupgrass, Woolly [5, 15]: 5
Plant response rating, Cupgrass, Woolly [5, 16]: 5
Cupgrass, Woolly plant response rating ([5]; Postemergence, scale 0 to 100): 50
Plant response rating, Cupgrass, Woolly [5, 20]: 50
Cupgrass, Woolly plant response rating [5, 21]: 70
Plant response rating, Cupgrass, Woolly [5, 18]: 30
Plant response rating, Cupgrass, Woolly [5, 19]: 0
Plant response rating (0 = no effect, 100 = complete control), Foxtail, Giant ([6]; 62 g ai/ha, preemergence): 40
Plant response rating, Foxtail, Giant [6, 15]: 70
Plant response rating, Foxtail, Giant [6, 16]: 100
Foxtail, Giant plant response rating ([6]; Postemergence, scale 0 to 100): 70
Plant response rating, Foxtail, Giant [6, 20]: 50
Foxtail, Giant plant response rating [6, 21]: 100
Plant response rating, Foxtail, Giant [6, 18]: 10
Plant response rating, Foxtail, Giant [6, 19]: 0
Plant response rating (0 = no effect, 100 = complete control), Goosegrass ([7]; 62 g ai/ha, preemergence): 30
Plant response rating, Goosegrass [7, 15]: 60
Goosegrass plant response rating ([7]; Postemergence, scale 0 to 100): 20
Plant response rating, Goosegrass [7, 20]: 10
Goosegrass plant response rating [7, 21]: 80
Plant response rating, Goosegrass [7, 18]: 5
Plant response rating, Goosegrass [7, 19]: 5
Plant response rating (0 = no effect, 100 = complete control), Ragweed ([8]; 62 g ai/ha, preemergence): 0
Plant response rating, Ragweed [8, 15]: 30
Ragweed plant response rating ([8]; Postemergence, scale 0 to 100): 80
Plant response rating, Ragweed [8, 20]: 50
Ragweed plant response rating [8, 21]: 80
Plant response rating, Ragweed [8, 18]: 0
Plant response rating, Ragweed [8, 19]: 0
Plant response rating (0 = no effect, 100 = complete control), Sunflower [9]: 0
Plant response rating, Sunflower ([9]; 125 g ai/ha, scale 0 (no effect) to 100 (complete control)): 0
Sunflower plant response rating [9]: 40
Sedge, Umbrella plant response rating [10, 22]: 80
Sedge, Umbrella plant response rating ([10]; 125 g ai/ha, scale 0 to 100 (0 no effect, 100 complete control)): 80
Sedge, Umbrella plant response rating ([10]; 250 g ai/ha, scale of 0 to 100, 0 is no effect, 100 is complete control): 80
Plant response rating, Sedge, Umbrella [10, 23]: 90

C=Cn1nc(C(C)(C)C)cc1C(=O)Nc1cccc(C(=O)N(CC)CC)c1 [Compound 34]
Plant response rating, Barnyardgrass [1, 11]: 45
Plant response rating, Barnyardgrass [1, 12]: 80
Barnyardgrass plant response rating [1, 13]: 55
Barnyardgrass plant response rating [1, 24]: 80
Plant response rating, Crabgrass, Large [2, 11]: 30
Plant response rating, Crabgrass, Large [2, 12]: 50
Crabgrass, Large plant response rating [2, 13]: 60
Crabgrass, Large plant response rating [2, 24]: 100
Plant response rating, Pigweed [3, 11]: 90
Plant response rating, Pigweed [3, 12]: 90
Pigweed plant response rating [3, 13]: 100
Pigweed plant response rating [3, 24]: 100
Plant response rating (0 = no effect, 100 = complete control), Bermudagrass ([4]; 62 g ai/ha, preemergence): 20
Plant response rating, Bermudagrass [4, 25]: 50
Plant response rating, Bermudagrass [4, 16]: 90
Bermudagrass plant response rating ([4]; Postemergence, 500 g ai/ha, scale 0 to 100): 50
Plant response rating, Bermudagrass [4, 26]: 40
Bermudagrass plant response rating ([4]; Postemergence, 250 g ai/ha, scale 0 to 100): 50
Bermudagrass plant response rating [4, 17]: 100
Plant response rating, Bermudagrass [4, 19]: 10
Plant response rating (0 = no effect, 100 = complete control), Cupgrass, Woolly ([5]; 62 g ai/ha, preemergence): 10
Plant response rating, Cupgrass, Woolly [5, 25]: 20
Plant response rating, Cupgrass, Woolly [5, 16]: 70
Cupgrass, Woolly plant response rating ([5]; Postemergence, scale 0 to 100): 90
Plant response rating, Cupgrass, Woolly [5, 26]: 60
Plant response rating, Cupgrass, Woolly [5, 20]: 80
Cupgrass, Woolly plant response rating [5, 21]: 70
Plant response rating, Cupgrass, Woolly [5, 19]: 40
Plant response rating (0 = no effect, 100 = complete control), Foxtail, Giant ([6]; 62 g ai/ha, preemergence): 10
Plant response rating, Foxtail, Giant [6, 25]: 70
Plant response rating, Foxtail, Giant [6, 16]: 90
Foxtail, Giant plant response rating ([6]; Postemergence, scale 0 to 100): 40
Plant response rating, Foxtail, Giant [6, 26]: 40
Plant response rating, Foxtail, Giant [6, 20]: 40
Foxtail, Giant plant response rating [6, 21]: 100
Plant response rating, Foxtail, Giant [6, 19]: 20
Plant response rating (0 = no effect, 100 = complete control), Goosegrass ([7]; 62 g ai/ha, preemergence): 20
Plant response rating, Goosegrass [7, 25]: 80
Plant response rating, Goosegrass [7, 16]: 100
Goosegrass plant response rating ([7]; Postemergence, scale 0 to 100): 40
Plant response rating, Goosegrass [7, 26]: 40
Plant response rating, Goosegrass [7, 20]: 40
Goosegrass plant response rating [7, 21]: 100
Plant response rating, Goosegrass [7, 19]: 30
Plant response rating (0 = no effect, 100 = complete control), Ragweed ([8]; 62 g ai/ha, preemergence): 0
Plant response rating, Ragweed [8, 16]: 0
Ragweed plant response rating ([8]; Postemergence, scale 0 to 100): 40
Plant response rating, Ragweed [8, 20]: 40
Ragweed plant response rating [8, 21]: 40
Plant response rating, Ragweed [8, 18]: 30
Plant response rating, Ragweed [8, 19]: 20
Plant response rating (0 = no effect, 100 = complete control), Sunflower [9]: 0
Plant response rating, Sunflower [9, 27]: 0
Sunflower plant response rating [9]: 0
Sedge, Umbrella plant response rating [10, 22]: 50
Sedge, Umbrella plant response rating ([10]; 125 g ai/ha, scale of 0 to 100, 0 is no effect, 100 is complete control): 80
Plant response rating, Sedge, Umbrella [10, 27]: 80
Plant response rating, Sedge, Umbrella [10, 23]: 90
